According to PubChem BioAssay (NCI):
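Test compounds were applied to cells in 96-well plates for 48 hours at 5 doses. GI50 is the concentration that inhibits growth by half. TGI marks complete inhibition of growth.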

Experiments:
Experiment in all cases: NCI tumour cell line growth inhibition, 48 h
IGROV1 ovarian = system: IGROV1 ovarian
UACC-62 melanoma = system: UACC-62 melanoma
SF-539 CNS = system: SF-539 CNS
NCI-H226 lung = system: NCI-H226 lung
MALME-3M melanoma = system: MALME-3M melanoma
K-562 leukemia = system: K-562 leukemia
DU-145 prostate = system: DU-145 prostate
SK-MEL-2 melanoma = system: SK-MEL-2 melanoma
HL-60(TB) leukemia = system: HL-60(TB) leukemia
SK-OV-3 ovarian = system: SK-OV-3 ovarian
M14 melanoma = system: M14 melanoma
ACHN renal = system: ACHN renal
SN12C renal = system: SN12C renal
OVCAR-4 ovarian = system: OVCAR-4 ovarian
TK-10 renal = system: TK-10 renal
NCI-H23 lung = system: NCI-H23 lung
HCC-2998 colon = system: HCC-2998 colon
LOX IMVI melanoma = system: LOX IMVI melanoma
RXF 393 renal = system: RXF 393 renal
OVCAR-5 ovarian = system: OVCAR-5 ovarian
MCF7 breast = system: MCF7 breast
T-47D breast = system: T-47D breast
SK-MEL-5 melanoma = system: SK-MEL-5 melanoma
UACC-257 melanoma = system: UACC-257 melanoma
RPMI-8226 leukemia = system: RPMI-8226 leukemia
CCRF-CEM leukemia = system: CCRF-CEM leukemia
OVCAR-8 ovarian = system: OVCAR-8 ovarian
U251 CNS = system: U251 CNS
OVCAR-3 ovarian = system: OVCAR-3 ovarian
HT29 colon = system: HT29 colon
HOP-92 NSCLC = system: HOP-92 NSCLC
HCT-15 colon = system: HCT-15 colon
NCI-H522 lung = system: NCI-H522 lung
EKVX NSCLC = system: EKVX NSCLC
MDA-MB-435 = system: MDA-MB-435
HOP-62 NSCLC = system: HOP-62 NSCLC
MDA-MB-231 breast = system: MDA-MB-231 breast
SNB-19 CNS = system: SNB-19 CNS
SF-268 CNS = system: SF-268 CNS
SK-MEL-28 melanoma = system: SK-MEL-28 melanoma
786-0 renal = system: 786-0 renal
COLO 205 colon = system: COLO 205 colon
SF-295 CNS = system: SF-295 CNS
SW-620 colon = system: SW-620 colon
KM12 colon = system: KM12 colon
BT-549 breast = system: BT-549 breast
NCI-H460 lung = system: NCI-H460 lung
A549 NSCLC = system: A549 NSCLC
PC-3 prostate = system: PC-3 prostate
UO-31 renal = system: UO-31 renal
A498 renal = system: A498 renal
NCI/ADR-RES ovarian = system: NCI/ADR-RES ovarian
HCT-116 colon = system: HCT-116 colon
MOLT-4 leukemia = system: MOLT-4 leukemia
CAKI-1 renal = system: CAKI-1 renal
HS 578T breast = system: HS 578T breast
SR leukemia = system: SR leukemia
SNB-75 CNS = system: SNB-75 CNS

Compound: C/C(=C\c1ccn(-c2ccc(N)cc2C(F)(F)F)n1)[C@@H]1C[C@@H]2O[C@]2(C)CCC[C@H](C)[C@H](O)[C@@H](C)C(=O)C(C)(C)[C@@H](O)CC(=O)O1
- GI50 (IGROV1 ovarian): 778 nM
- TGI (IGROV1 ovarian): > 11100 nM
- GI50 (UACC-62 melanoma): 488 nM
- TGI (UACC-62 melanoma): > 11100 nM
- GI50 (SF-539 CNS): 305 nM
- TGI (SF-539 CNS): 1860 nM
- GI50 (NCI-H226 lung): 6350 nM
- TGI (NCI-H226 lung): > 11100 nM
- GI50 (MALME-3M melanoma): 736 nM
- TGI (MALME-3M melanoma): > 11100 nM
- GI50 (K-562 leukemia): 356 nM
- TGI (K-562 leukemia): > 11100 nM
- GI50 (DU-145 prostate): 401 nM
- TGI (DU-145 prostate): 2870 nM
- GI50 (SK-MEL-2 melanoma): 303 nM
- TGI (SK-MEL-2 melanoma): 902 nM
- GI50 (HL-60(TB) leukemia): 296 nM
- TGI (HL-60(TB) leukemia): 1070 nM
- GI50 (SK-OV-3 ovarian): 420 nM
- TGI (SK-OV-3 ovarian): > 11100 nM
- GI50 (M14 melanoma): 242 nM
- TGI (M14 melanoma): 1560 nM
- GI50 (ACHN renal): 512 nM
- TGI (ACHN renal): > 11100 nM
- GI50 (SN12C renal): 1570 nM
- TGI (SN12C renal): > 11100 nM
- GI50 (OVCAR-4 ovarian): > 11100 nM
- TGI (OVCAR-4 ovarian): > 11100 nM
- GI50 (TK-10 renal): 612 nM
- TGI (TK-10 renal): > 11100 nM
- GI50 (NCI-H23 lung): 548 nM
- TGI (NCI-H23 lung): > 11100 nM
- GI50 (HCC-2998 colon): 306 nM
- TGI (HCC-2998 colon): 6230 nM
- GI50 (LOX IMVI melanoma): 476 nM
- TGI (LOX IMVI melanoma): > 11100 nM
- GI50 (RXF 393 renal): 395 nM
- TGI (RXF 393 renal): 4210 nM
- GI50 (OVCAR-5 ovarian): 519 nM
- TGI (OVCAR-5 ovarian): > 11100 nM
- GI50 (MCF7 breast): 85.9 nM
- TGI (MCF7 breast): > 11100 nM
- GI50 (T-47D breast): 658 nM
- TGI (T-47D breast): > 11100 nM
- GI50 (SK-MEL-5 melanoma): 356 nM
- TGI (SK-MEL-5 melanoma): > 11100 nM
- GI50 (UACC-257 melanoma): 1030 nM
- TGI (UACC-257 melanoma): > 11100 nM
- GI50 (RPMI-8226 leukemia): 374 nM
- TGI (RPMI-8226 leukemia): > 11100 nM
- GI50 (CCRF-CEM leukemia): 413 nM
- TGI (CCRF-CEM leukemia): > 11100 nM
- GI50 (OVCAR-8 ovarian): 506 nM
- TGI (OVCAR-8 ovarian): > 11100 nM
- GI50 (U251 CNS): 386 nM
- TGI (U251 CNS): > 11100 nM
- GI50 (OVCAR-3 ovarian): 344 nM
- TGI (OVCAR-3 ovarian): 2660 nM
- GI50 (HT29 colon): 117 nM
- TGI (HT29 colon): 996 nM
- GI50 (HOP-92 NSCLC): 1270 nM
- TGI (HOP-92 NSCLC): > 11100 nM
- GI50 (HCT-15 colon): 429 nM
- TGI (HCT-15 colon): > 11100 nM
- GI50 (NCI-H522 lung): 178 nM
- TGI (NCI-H522 lung): 428 nM
- GI50 (EKVX NSCLC): 747 nM
- TGI (EKVX NSCLC): > 11100 nM
- GI50 (MDA-MB-435): 59.9 nM
- TGI (MDA-MB-435): 286 nM
- GI50 (HOP-62 NSCLC): 490 nM
- TGI (HOP-62 NSCLC): 9980 nM
- GI50 (MDA-MB-231 breast): 1510 nM
- TGI (MDA-MB-231 breast): > 11100 nM
- GI50 (SNB-19 CNS): 553 nM
- TGI (SNB-19 CNS): > 11100 nM
- GI50 (SF-268 CNS): 481 nM
- TGI (SF-268 CNS): > 11100 nM
- GI50 (SK-MEL-28 melanoma): 1060 nM
- TGI (SK-MEL-28 melanoma): > 11100 nM
- GI50 (786-0 renal): 569 nM
- TGI (786-0 renal): > 11100 nM
- GI50 (COLO 205 colon): 250 nM
- TGI (COLO 205 colon): 773 nM
- GI50 (SF-295 CNS): 314 nM
- TGI (SF-295 CNS): 2190 nM
- GI50 (SW-620 colon): 301 nM
- TGI (SW-620 colon): > 11100 nM
- GI50 (KM12 colon): 254 nM
- TGI (KM12 colon): > 11100 nM
- GI50 (BT-549 breast): 553 nM
- TGI (BT-549 breast): > 11100 nM
- GI50 (NCI-H460 lung): 302 nM
- TGI (NCI-H460 lung): > 11100 nM
- GI50 (A549 NSCLC): 508 nM
- TGI (A549 NSCLC): > 11100 nM
- GI50 (PC-3 prostate): 406 nM
- TGI (PC-3 prostate): > 11100 nM
- GI50 (UO-31 renal): 954 nM
- TGI (UO-31 renal): > 11100 nM
- GI50 (A498 renal): 303 nM
- TGI (A498 renal): 2270 nM
- GI50 (NCI/ADR-RES ovarian): 4380 nM
- TGI (NCI/ADR-RES ovarian): > 11100 nM
- GI50 (HCT-116 colon): 201 nM
- TGI (HCT-116 colon): > 11100 nM
- GI50 (MOLT-4 leukemia): 533 nM
- TGI (MOLT-4 leukemia): > 11100 nM
- GI50 (CAKI-1 renal): 7810 nM
- TGI (CAKI-1 renal): > 11100 nM
- GI50 (HS 578T breast): 399 nM
- TGI (HS 578T breast): 4300 nM

Compound: COc1ccccc1NC(=S)Nc1cccc(C)n1
- TGI (IGROV1 ovarian): > 100000 nM
- TGI (UACC-62 melanoma): > 100000 nM
- TGI (SF-539 CNS): > 100000 nM
- TGI (NCI-H226 lung): > 100000 nM
- TGI (MALME-3M melanoma): > 100000 nM
- TGI (K-562 leukemia): > 100000 nM
- TGI (DU-145 prostate): > 100000 nM
- TGI (SK-MEL-2 melanoma): > 100000 nM
- TGI (HL-60(TB) leukemia): > 100000 nM
- TGI (SK-OV-3 ovarian): > 100000 nM
- TGI (M14 melanoma): > 100000 nM
- TGI (SN12C renal): > 100000 nM
- TGI (OVCAR-4 ovarian): > 100000 nM
- TGI (TK-10 renal): > 100000 nM
- TGI (LOX IMVI melanoma): > 100000 nM
- TGI (RXF 393 renal): > 100000 nM
- TGI (OVCAR-5 ovarian): > 100000 nM
- TGI (MCF7 breast): > 100000 nM
- TGI (T-47D breast): > 100000 nM
- TGI (SK-MEL-5 melanoma): > 100000 nM
- TGI (UACC-257 melanoma): > 100000 nM
- TGI (RPMI-8226 leukemia): > 100000 nM
- TGI (CCRF-CEM leukemia): > 100000 nM
- TGI (OVCAR-8 ovarian): > 100000 nM
- TGI (U251 CNS): > 100000 nM
- TGI (OVCAR-3 ovarian): > 100000 nM
- TGI (HT29 colon): > 100000 nM
- TGI (HCT-15 colon): > 100000 nM
- TGI (NCI-H522 lung): 45900 nM
- TGI (EKVX NSCLC): > 100000 nM
- TGI (MDA-MB-435): > 100000 nM
- TGI (HOP-62 NSCLC): > 100000 nM
- TGI (SNB-19 CNS): > 100000 nM
- TGI (SF-268 CNS): > 100000 nM
- TGI (SK-MEL-28 melanoma): > 100000 nM
- TGI (786-0 renal): > 100000 nM
- TGI (COLO 205 colon): > 100000 nM
- TGI (SF-295 CNS): > 100000 nM
- TGI (SW-620 colon): > 100000 nM
- TGI (KM12 colon): > 100000 nM
- TGI (BT-549 breast): > 100000 nM
- TGI (NCI-H460 lung): > 100000 nM
- TGI (A549 NSCLC): > 100000 nM
- TGI (PC-3 prostate): > 100000 nM
- TGI (UO-31 renal): > 100000 nM
- TGI (A498 renal): > 100000 nM
- TGI (NCI/ADR-RES ovarian): > 100000 nM
- TGI (SR leukemia): > 100000 nM
- TGI (HCT-116 colon): > 100000 nM
- TGI (MOLT-4 leukemia): > 100000 nM
- TGI (SNB-75 CNS): 63500 nM
- TGI (CAKI-1 renal): > 100000 nM
- TGI (HS 578T breast): > 100000 nM
